# How the values were obtained:
# Notum [1] = target: T1, Notum (Homo sapiens, UniProt Q6P988, C330S); assay: Thermal shift assay (SYPRO Orange) of Notum; conditions: compound 500 µM; for Thermoflour melting curve fluorescence of Notum: Fig 2c
# T1 sequence (Q6P988 81-451 C330S): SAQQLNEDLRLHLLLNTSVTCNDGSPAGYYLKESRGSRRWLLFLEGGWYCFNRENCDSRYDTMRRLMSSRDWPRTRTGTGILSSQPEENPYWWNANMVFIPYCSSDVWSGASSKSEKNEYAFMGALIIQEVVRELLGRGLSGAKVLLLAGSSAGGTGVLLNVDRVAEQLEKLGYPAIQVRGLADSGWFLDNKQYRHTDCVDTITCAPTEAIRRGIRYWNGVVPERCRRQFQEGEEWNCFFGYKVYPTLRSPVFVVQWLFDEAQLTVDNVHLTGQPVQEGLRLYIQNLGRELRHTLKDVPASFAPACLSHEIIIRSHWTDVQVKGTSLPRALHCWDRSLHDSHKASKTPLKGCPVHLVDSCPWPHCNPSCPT
# Description: Reference wells, i.e. solutions without compounds were used to compare the melting temperature (Tm). The experiments were performed in triplicate.
# Notum [2] = target: T1, Notum; assay: Notum activity assay with OPTS as substrate; format: biochemical; set-up: The human Notum enzyme core comprising amino acids S81–T451 with a C330S mutation; made in house; dialyzed conditioned medium used without purification; conditions: result in words
# Description: OPTS is a common lipase substrate with an octanoyl lipid linked to a fluorescent moiety. It is not a natural Notum substrate; however, it can be used to quantify the enzymatic activity of purified Notum protein[23],[25],[28]. […] The fluorescent lipase substrate OPTS was dissolved in water at a concentration of 20 µM. […] The inhibition curves were fitted with a one-site model with GraphPad Prism 8 software.
# Notum [3] = target: T1, Notum; assay: SPR equilibrium binding to biotinylated Notum on streptavidin chip; set-up: The human Notum enzyme core comprising amino acids S81–T451 with a C330S mutation; made in house; dialyzed conditioned medium used without purification; conditions: result in words
# Description: The human Notum core sequence was cloned in a pHL-Avi3 vector[49] and co-transfected with the pDisplay_BirA-ER plasmid[50] into HEK293T cells with the media supplemented with 20 µM biotin. This procedure allows in vivo biotinylation to occur, and the dialyzed conditioned medium was directly used for SA sensor chip immobilization without protein purification. […] Approximately 2500 resonance units (RU) of the biotinylated Notum was coupled onto the chip. […] The response was plotted versus the concentration of the analytes and fitted by nonlinear regression to a one-site saturation binding model (GraphPad Prism 8).
compound,measurement,setting,value
"Cn1c(=O)[nH]c2ncn(C)c2c1=O [paraxanthine, 1,7-dimethylxanthine]",Thermoflour melting curve fluorescence of Notum,Notum [1]; Temperature 24.5,1987.07
same,Thermoflour melting curve fluorescence of Notum,Notum [1]; Temperature 25.5,1782.57
same,Thermoflour melting curve fluorescence of Notum,Notum [1]; Temperature 26.5,1579.35
same,Thermoflour melting curve fluorescence of Notum,Notum [1]; Temperature 27.5,1384.26
same,Thermoflour melting curve fluorescence of Notum,Notum [1]; Temperature 28.5,1239.77
same,Thermoflour melting curve fluorescence of Notum,Notum [1]; Temperature 29.5,1129.04
same,Thermoflour melting curve fluorescence of Notum,Notum [1]; Temperature 30.5,1031.12
same,Thermoflour melting curve fluorescence of Notum,Notum [1]; Temperature 31.5,918.053
same,Thermoflour melting curve fluorescence of Notum,Notum [1]; Temperature 32.5,770.537
same,Thermoflour melting curve fluorescence of Notum,Notum [1]; Temperature 33.5,609.721
same,Thermoflour melting curve fluorescence of Notum,Notum [1]; Temperature 34.5,426.953
same,Thermoflour melting curve fluorescence of Notum,Notum [1]; Temperature 35.5,213.386
same,Thermoflour melting curve fluorescence of Notum,Notum [1]; Temperature 36.5,-34.2239
same,Thermoflour melting curve fluorescence of Notum,Notum [1]; Temperature 37.5,-296.182
same,Thermoflour melting curve fluorescence of Notum,Notum [1]; Temperature 38.5,-499.812
same,Thermoflour melting curve fluorescence of Notum,Notum [1]; Temperature 39.5,-637.629
same,Thermoflour melting curve fluorescence of Notum,Notum [1]; Temperature 40.5,-751.582
same,Thermoflour melting curve fluorescence of Notum,Notum [1]; Temperature 41.5,-837.247
same,Thermoflour melting curve fluorescence of Notum,Notum [1]; Temperature 42.5,-891.039
same,Thermoflour melting curve fluorescence of Notum,Notum [1]; Temperature 43.5,-901.613
same,Thermoflour melting curve fluorescence of Notum,Notum [1]; Temperature 44.5,-863.856
same,Thermoflour melting curve fluorescence of Notum,Notum [1]; Temperature 45.5,-795.543
same,Thermoflour melting curve fluorescence of Notum,Notum [1]; Temperature 46.5,-693.454
same,Thermoflour melting curve fluorescence of Notum,Notum [1]; Temperature 47.5,-545.549
same,Thermoflour melting curve fluorescence of Notum,Notum [1]; Temperature 48.5,-352.113
same,Thermoflour melting curve fluorescence of Notum,Notum [1]; Temperature 49.5,-114.575
same,Thermoflour melting curve fluorescence of Notum,Notum [1]; Temperature 50.5,165.368
same,Thermoflour melting curve fluorescence of Notum,Notum [1]; Temperature 51.5,475.15
same,Thermoflour melting curve fluorescence of Notum,Notum [1]; Temperature 52.5,801.618
same,Thermoflour melting curve fluorescence of Notum,Notum [1]; Temperature 53.5,1178.09
same,Thermoflour melting curve fluorescence of Notum,Notum [1]; Temperature 54.5,1624.42
same,Thermoflour melting curve fluorescence of Notum,Notum [1]; Temperature 55.5,2146.78
same,Thermoflour melting curve fluorescence of Notum,Notum [1]; Temperature 56.5,2764.33
same,Thermoflour melting curve fluorescence of Notum,Notum [1]; Temperature 57.5,3495.42
same,Thermoflour melting curve fluorescence of Notum,Notum [1]; Temperature 58.5,4462.48
same,Thermoflour melting curve fluorescence of Notum,Notum [1]; Temperature 59.5,5756.59
same,Thermoflour melting curve fluorescence of Notum,Notum [1]; Temperature 60.5,7495.13
same,Thermoflour melting curve fluorescence of Notum,Notum [1]; Temperature 61.5,9729.04
same,Thermoflour melting curve fluorescence of Notum,Notum [1]; Temperature 62.5,12262.8
same,Thermoflour melting curve fluorescence of Notum,Notum [1]; Temperature 63.5,14775.9
same,Thermoflour melting curve fluorescence of Notum,Notum [1]; Temperature 64.5,17022.5
same,Thermoflour melting curve fluorescence of Notum,Notum [1]; Temperature 65.5,18955.6
same,Thermoflour melting curve fluorescence of Notum,Notum [1]; Temperature 66.5,20556.8
same,Thermoflour melting curve fluorescence of Notum,Notum [1]; Temperature 67.5,21849.9
same,Thermoflour melting curve fluorescence of Notum,Notum [1]; Temperature 68.5,22932.3
same,Thermoflour melting curve fluorescence of Notum,Notum [1]; Temperature 69.5,23847.9
same,Thermoflour melting curve fluorescence of Notum,Notum [1]; Temperature 70.5,24631
same,Thermoflour melting curve fluorescence of Notum,Notum [1]; Temperature 71.5,25359.6
same,Thermoflour melting curve fluorescence of Notum,Notum [1]; Temperature 72.5,25975.5
same,Thermoflour melting curve fluorescence of Notum,Notum [1]; Temperature 73.5,26515.7
same,Thermoflour melting curve fluorescence of Notum,Notum [1]; Temperature 74.5,27075.8
same,Thermoflour melting curve fluorescence of Notum,Notum [1]; Temperature 75.5,27622.8
same,Thermoflour melting curve fluorescence of Notum,Notum [1]; Temperature 76.5,28157.3
same,Thermoflour melting curve fluorescence of Notum,Notum [1]; Temperature 77.5,28616.3
same,Thermoflour melting curve fluorescence of Notum,Notum [1]; Temperature 78.5,29028.5
same,Thermoflour melting curve fluorescence of Notum,Notum [1]; Temperature 79.5,29470.8
same,Thermoflour melting curve fluorescence of Notum,Notum [1]; Temperature 80.5,29930.8
same,Thermoflour melting curve fluorescence of Notum,Notum [1]; Temperature 81.5,30385.9
same,Thermoflour melting curve fluorescence of Notum,Notum [1]; Temperature 82.5,30819.6
same,Thermoflour melting curve fluorescence of Notum,Notum [1]; Temperature 83.5,31270.2
same,Thermoflour melting curve fluorescence of Notum,Notum [1]; Temperature 84.5,31691.8
same,Thermoflour melting curve fluorescence of Notum,Notum [1]; Temperature 85.5,32102.2
same,Thermoflour melting curve fluorescence of Notum,Notum [1]; Temperature 86.5,32523.2
same,Thermoflour melting curve fluorescence of Notum,Notum [1]; Temperature 87.5,32949.1
same,Thermoflour melting curve fluorescence of Notum,Notum [1]; Temperature 88.5,33332.7
same,Thermoflour melting curve fluorescence of Notum,Notum [1]; Temperature 89.5,33682.6
same,Thermoflour melting curve fluorescence of Notum,Notum [1]; Temperature 90.5,34084.7
same,Thermoflour melting curve fluorescence of Notum,Notum [1]; Temperature 91.5,34496.3
same,Thermoflour melting curve fluorescence of Notum,Notum [1]; Temperature 92.5,34921.9
same,Thermoflour melting curve fluorescence of Notum,Notum [1]; Temperature 93.5,35339.5
same,Thermoflour melting curve fluorescence of Notum,Notum [1]; Temperature 94.5,35764.6
same,Thermoflour melting curve fluorescence of Notum,Notum [1]; Temperature 95.5,36159.7
same,Thermoflour melting curve fluorescence of Notum,Notum [1]; Temperature 96.5,36500.9
same,Thermoflour melting curve fluorescence of Notum,Notum [1]; Temperature 97.5,36857
same,Effect on Tm of Notum,Notum [1],little effect on the Tm
same,Melting temperature (Tm) of Notum,Notum [1]; Notum without compounds Tm 63.6 °C,63.5 °C
same,Notum inhibitory effect in OPTS enzyme assay,Notum [2],could not detect obvious Notum inhibitory effects
same,Binding to Notum (SPR response),Notum [3],did not observe significant responses
same,Binding to Notum (SPR response),Notum [3]; listed as Paraxanthine,do not bind Notum
